In publication PMC4455115, “A new arylbenzofuran derivative functions as an anti-tumour agent by inducing DNA damage and inhibiting PARP activity” (Scientific Reports, 2015):
pIC50: −log10 of the molar value.

Molecular target: T1, PARP-1 (Homo sapiens, UniProt P09874)
T1 construct: gene PARP1
Assay: HT Universal Colorimetric PARP Assay Kit (Trevigen), in vitro PARP-1 activity
Format: biochemical

T1 sequence (P09874 2-1014): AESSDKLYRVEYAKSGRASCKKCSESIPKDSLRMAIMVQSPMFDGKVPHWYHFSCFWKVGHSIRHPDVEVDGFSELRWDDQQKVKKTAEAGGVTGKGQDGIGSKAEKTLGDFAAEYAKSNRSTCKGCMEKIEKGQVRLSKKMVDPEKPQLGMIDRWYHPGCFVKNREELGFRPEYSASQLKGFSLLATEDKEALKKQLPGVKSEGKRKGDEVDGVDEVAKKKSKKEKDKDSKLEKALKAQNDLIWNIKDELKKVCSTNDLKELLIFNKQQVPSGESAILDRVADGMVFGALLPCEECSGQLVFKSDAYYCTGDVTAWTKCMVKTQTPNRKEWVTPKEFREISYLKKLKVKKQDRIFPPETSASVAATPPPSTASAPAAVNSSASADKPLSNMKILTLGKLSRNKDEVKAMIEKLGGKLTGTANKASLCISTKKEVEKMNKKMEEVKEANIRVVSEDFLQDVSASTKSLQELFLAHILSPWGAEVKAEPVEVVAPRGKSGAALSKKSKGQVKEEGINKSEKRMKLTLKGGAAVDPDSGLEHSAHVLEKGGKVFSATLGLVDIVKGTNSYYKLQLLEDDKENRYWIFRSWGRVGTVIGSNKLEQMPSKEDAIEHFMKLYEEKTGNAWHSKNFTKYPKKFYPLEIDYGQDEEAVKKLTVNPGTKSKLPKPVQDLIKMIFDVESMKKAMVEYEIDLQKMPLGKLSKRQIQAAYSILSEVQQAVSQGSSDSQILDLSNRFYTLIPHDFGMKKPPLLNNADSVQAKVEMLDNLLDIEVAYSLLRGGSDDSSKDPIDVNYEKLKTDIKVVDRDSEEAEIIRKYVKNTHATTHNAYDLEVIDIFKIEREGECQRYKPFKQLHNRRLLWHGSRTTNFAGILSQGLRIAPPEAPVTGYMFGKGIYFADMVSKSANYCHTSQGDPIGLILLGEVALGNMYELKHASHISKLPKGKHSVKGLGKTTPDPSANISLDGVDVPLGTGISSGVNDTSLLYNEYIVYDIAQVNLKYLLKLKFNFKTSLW

pIC50: 3.81
Compound: COc1ccc(-c2cc3cc(OC)cc(O)c3o2)cc1 [HDAB]
